From ChEMBL document CHEMBL3526122, “Identification of UDP-glucuronosyltransferases responsible for the glucuronidation of darexaban, an oral factor Xa inhibitor, in human liver and intestine” (Drug Metab Dispos, 2012)

How the values were obtained:
[1] = Drug metabolism in human intestinal microsomes assessed as glucuronidation after 5 mins by Michaelis-Menten plot analysis in presence of UDPGA; assay type: ADME, Intestine, Microsome
[2] = Ratio of Km for drug metabolism in human liver microsomes to Km for human recombinant UGT1A9-mediated drug metabolism; assay type: ADME; settings: recombinant enzyme
[3] = Fraction unbound in human liver microsomes at 1 to 250 uM after 10 mins by ultrafiltration method in absence of fatty acid free BSA; assay type: ADME
[4] = Drug metabolism in human liver microsomes assessed as glucuronidation after 10 mins by Michaelis-Menten plot analysis in presence of UDPGA and 2% fatty acid free BSA; assay type: ADME; settings: read-out: Km(unbound)
[5] = tested on: Liver microsome; experiment: Unbound intrinsic clearance in human liver microsomes assessed per mg of protein after 10 mins in presence of UDPGA and absence of fatty acid free BSA; assay type: ADME
[6] = tested on: Liver microsome; experiment: Unbound intrinsic clearance in human liver microsomes assessed per mg of protein after 10 mins in presence of UDPGA and 0.5% fatty acid free BSA; assay type: ADME
[7] = Fraction unbound incubation mixture containing human recombinant UGT1A9 at 1 to 250 uM after 10 mins by ultrafiltration method in presence of 0.1% fatty acid free BSA
[8] = target: T1, UDP-glucuronosyltransferase 1A8 (Homo sapiens, UniProt Q9HAW9); experiment: Activity of human recombinant UGT1A8 expressed in baculovirus-infected insect cells assessed as intrinsic clearance for enzyme-mediated glucuronide formation per mg of protein at 1 to 250 uM after 10 mins in presence of UDPGA; assay type: ADME
T1 sequence (Q9HAW9 whole entry): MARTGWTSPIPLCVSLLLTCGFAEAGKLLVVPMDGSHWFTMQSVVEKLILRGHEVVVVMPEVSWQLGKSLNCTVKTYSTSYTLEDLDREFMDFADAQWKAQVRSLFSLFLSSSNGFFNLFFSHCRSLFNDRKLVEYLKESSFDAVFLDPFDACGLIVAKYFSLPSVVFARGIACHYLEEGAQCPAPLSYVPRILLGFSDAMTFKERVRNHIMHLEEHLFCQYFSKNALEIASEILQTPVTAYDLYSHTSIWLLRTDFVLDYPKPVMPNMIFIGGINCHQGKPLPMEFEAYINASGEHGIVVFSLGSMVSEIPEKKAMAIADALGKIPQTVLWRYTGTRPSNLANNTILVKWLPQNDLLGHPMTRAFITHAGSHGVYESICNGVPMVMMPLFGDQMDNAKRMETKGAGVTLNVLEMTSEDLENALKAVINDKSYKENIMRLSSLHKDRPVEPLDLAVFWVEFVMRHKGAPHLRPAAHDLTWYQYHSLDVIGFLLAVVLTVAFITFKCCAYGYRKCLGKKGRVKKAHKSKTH

[9] = Drug metabolism in human intestinal microsomes assessed as glucuronidation after 10 mins by Michaelis-Menten plot; assay type: ADME, Intestine, Microsome
[10] = target: T2, UDP-glucuronosyltransferase 1A3 (Homo sapiens, UniProt P35503); experiment: Activity of human recombinant UGT1A3 expressed in baculovirus-infected insect cells assessed as enzyme-mediated glucuronidation per mg of protein after 10 mins in presence of UDPGA; assay type: ADME
T2 sequence (P35503 whole entry): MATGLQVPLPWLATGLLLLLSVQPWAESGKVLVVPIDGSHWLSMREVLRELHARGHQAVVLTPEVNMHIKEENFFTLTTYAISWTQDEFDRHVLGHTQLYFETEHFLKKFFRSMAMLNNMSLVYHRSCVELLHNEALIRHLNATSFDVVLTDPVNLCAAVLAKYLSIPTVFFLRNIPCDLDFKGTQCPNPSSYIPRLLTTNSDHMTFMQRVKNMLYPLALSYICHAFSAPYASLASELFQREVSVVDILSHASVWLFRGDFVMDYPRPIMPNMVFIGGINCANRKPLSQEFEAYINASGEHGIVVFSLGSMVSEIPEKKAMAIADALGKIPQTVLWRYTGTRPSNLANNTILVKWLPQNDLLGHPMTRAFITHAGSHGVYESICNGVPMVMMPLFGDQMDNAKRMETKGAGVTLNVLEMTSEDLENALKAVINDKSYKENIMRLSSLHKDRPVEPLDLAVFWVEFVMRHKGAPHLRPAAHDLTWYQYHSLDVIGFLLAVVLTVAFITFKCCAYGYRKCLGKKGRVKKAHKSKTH

[11] = target: T3, UDP-glucuronosyltransferase 1A10 (Homo sapiens, UniProt Q9HAW8); experiment: Inhibition of human recombinant UGT1A10 after 10 mins in presence of UDPGA; assay type: ADME
T3 sequence (Q9HAW8 whole entry): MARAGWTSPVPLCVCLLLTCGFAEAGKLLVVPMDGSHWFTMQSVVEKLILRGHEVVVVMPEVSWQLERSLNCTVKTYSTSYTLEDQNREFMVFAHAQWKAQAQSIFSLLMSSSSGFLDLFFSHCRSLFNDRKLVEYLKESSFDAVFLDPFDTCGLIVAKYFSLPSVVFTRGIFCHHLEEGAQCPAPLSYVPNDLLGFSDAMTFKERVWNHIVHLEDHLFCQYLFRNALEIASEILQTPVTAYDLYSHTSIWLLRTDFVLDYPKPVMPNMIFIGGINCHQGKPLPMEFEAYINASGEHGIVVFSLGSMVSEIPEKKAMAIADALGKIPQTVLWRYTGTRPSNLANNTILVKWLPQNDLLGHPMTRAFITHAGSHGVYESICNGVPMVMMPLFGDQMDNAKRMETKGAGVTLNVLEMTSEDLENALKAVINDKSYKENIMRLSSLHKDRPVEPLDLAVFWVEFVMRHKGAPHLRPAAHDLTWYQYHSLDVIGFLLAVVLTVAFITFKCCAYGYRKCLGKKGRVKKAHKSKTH

[12] = target: T3, UDP-glucuronosyltransferase 1A10; experiment: Activity of recombinant human UGT1A10 expressed in baculovirus-infected insect cells assessed as enzyme-mediated glucuronidation per mg of protein after 10 mins in presence of UDPGA; assay type: ADME
[13] = Drug metabolism in human liver microsomes assessed as glucuronidation after 10 mins by Michaelis-Menten plot analysis in presence of UDPGA; assay type: ADME
[14] = Fraction unbound in human liver microsomes at 1 to 250 uM after 10 mins by ultrafiltration method in presence of 2% fatty acid free BSA; assay type: ADME
[15] = target: T1, UDP-glucuronosyltransferase 1A8; experiment: Ratio of Ki to Km for human recombinant UGT1A8 expressed in baculovirus-infected insect cells; assay type: ADME; settings: recombinant enzyme
[16] = tested on: Liver microsome; experiment: Drug metabolism in human liver microsomes assessed as glucuronidation per mg of protein after 10 mins by Michaelis-Menten plot analysis in presence of UDPGA and absence of fatty acid free BSA; assay type: ADME
[17] = target: T3, UDP-glucuronosyltransferase 1A10; experiment: Activity of human recombinant UGT1A10 expressed in baculovirus-infected insect cells assessed as intrinsic clearance for enzyme-mediated glucuronide formation per mg of protein at 1 to 250 uM after 10 mins in presence of UDPGA; assay type: ADME
[18] = Drug metabolism in human liver microsomes assessed as glucuronidation at 30 uM after 5 mins by LC-MS/MS analysis relative to vehicle-treated control in presence of bilirubin and UDPGA; assay type: ADME; settings: with bilirubin, read-out: Drug metabolism

SMILES: COc1ccc(C(=O)Nc2cccc(O)c2NC(=O)c2ccc(N3CCCN(C)CC3)cc2)cc1.O=C(O)CCC(=O)O
- Km at 5 min [1]: 27.3 µM
- Ratio [2]: 4.3
- fraction unbound at 10 min, up to 250 µM [3]: 0.873
- Km at 10 min [4]: 17.6 µM
- CL free [5]: 17.4 µL/min/mg
- CL free [6]: 184 µL/min/mg
- Fu [7]: 0.755
- clearance [8]: 51.5 µL/min/mg
- Km at 10 min [9]: 27.3 µM
- Drug metabolism [10]: < 0.01 nmol/min/mg
- Ki [11]: 235 µM
- Drug metabolism [12]: 0.516 nmol/min/mg
- Km at 10 min [13]: > 250 µM
- fraction unbound at 10 min, up to 250 µM [14]: 0.251
- Ratio [15]: 30
- Vmax [16]: 3.75 nmol/min/mg
- clearance [17]: 39.8 µL/min/mg
- activity at 5 min, 30 µM [18]: 59.9%
